Measurements: patent publication US20060147481A1 (priority 2005, published 2006)

Columns and labels:
[1] = test system: platelet cyclo-oxygenase; settings: horse, oral; cited from earlier work
[2] = test system: swine influenza; format: in vivo, swine (finishing hogs)
[3] = test system: PRRS (Porcine Respiratory and Reproductive Syndrome) Virus; assay: PRRS virus outbreak in swine nursery, Ketoprofen orally; format: in vivo; settings: orally for 7 days along with same other therapy as controls
Description: A swine client with a 10,000 head nursery was experiencing severe mortality due to a PRRS (Porcine Respiratory and Reproductive Syndrome) Virus outbreak. They had used antibiotics with only partial success and were seeing mortalities as high as 30 percent in the group. […] We also saw less chronic pigs in the treatment group 3% versus 15% in the controls.

[4] = test system: chronic laminitis; assay: Horse with chronic laminitis, Ketoprofen in the water; format: in vivo; settings: 1 mg per pound in the water for 2 weeks
Description: An equine client with a horse with chronic laminitis was using phenylbutazone to try to control the inflammation and pain associated with the disease. This product had to be given to the horse daily by the owner. […] The results were very good.

[5] = 1 mg/pound for 3 days orally through drinking water

| SMILES | duration of inhibition of platelet cyclo-oxygenase [1] [h] | morbidity at the time of the outbreak [2, 5] [%] | mortality [2, 5] [%] | average time to market, less than the control group ([2]; 1 mg/pound for 3 days orally through drinking water, 150 pound hogs marketed at 260 pounds) [days] | follow-up mass medication with antibiotics ([2]; two weeks after the outbreak) | chronic pigs [3] [%] | mortality [3] [%] | pain compared with previous treatment (phenylbutazone) [4] |
| --- | --- | --- | --- | --- | --- | --- | --- | --- |
| CN=C1CCN(c2cccc(C(F)(F)F)c2)N1 [BW540C] | 24 |  |  |  |  |  |  |  |
| CC(C(=O)O)c1cccc(C(=O)c2ccccc2)c1 (centres unmarked) [Ketoprofen] |  | 10 | 2.1 | 9 | did not require any mass medication with antibiotics | 3 | 7 | less painful |
